Like-named read-outs stand apart in the source and are kept apart here.
Assays:
[1] = Metabolic stability, human liver microsomes (CEREP); type: in vitro ADME
Description: (§1) Preliminary screening measures were conducted by CEREP. All values fall within acceptable limits (Table 5). Solubility assays where performed by CEREP, Seattle, Wash., according to Lipinski, C. A. et al., 1997, Adv. Drug Del. Rev., 46:3-26. Protein binding assays where performed by CEREP, Seattle, Wash., according to Banker, M. J. et al., 2003, J. Pharm. Sci., 92:967-974. Permeability assays where performed by CEREP, Seattle, Wash. according to Hildalgo, I. J., 1998, Gastroenterology, 96:736-749. Metabolic stability assays where performed by CEREP, Seattle, Wash., according to Obach, R. S. et al., 1997, J. Pharmacol. Exp. Ther., 283:46-58. P-glycoprotein inhibition assays where performed by CEREP, Seattle, Wash., according to Polli, J. W. et al., 2001, J. Pharm. Exp. Ther., 299:620-628. Cell viability assays where performed by CEREP, Seattle, Wash., according to Mosmann, T., 1983, J. Immunol. Met. 65:55-62. hERG automated patch clamp assays where performed by CEREP, Seattle, Wash., according to Mathes, C., 2006, Expert Opin. Ther. Targets, 10:230-241.

Hep-G2 cells = assay: Cell viability, Hep-G2 cells (CEREP); type: cell-based
Description: as §1

[2] = Toxicokinetics of the 7-day tox study; type: in vivo, rats; details: for increase in AUC0-24 h for a 10-fold increase in dose / increase in Cmax for a 10-fold increase in dose: 10 to 100 mg/kg; for AUC / half-life / Cmax / Tmax / clearance / Vd / bioavailability: rat; for half-life: read-out: T½ (converted); for Vd: read-out: Vdss; for bioavailability: read-out: calculated oral absolute bioavailability
Description: A 7-day non-GLP tox study was performed in rats. […] The following parameters and end points were evaluated in this study: clinical signs, body weights, body weight changes, food consumption, clinical pathology parameters (hematology, coagulation, clinical chemistry, and urinalysis), toxicokinetic parameters, gross necropsy findings, organ weights, and histopathologic examinations.
Clinical signs and body weight changes in the TK animals were generally similar to the main toxicology phase animals. Select toxicokinetic parameters from Days 1 and 7 are included below in Table 11.

[3] = all three oral doses, whole blood
[4] = female, whole blood, iv, 5 mg/kg, Day 1, 5 mg/kg I.V., Female
[5] = female, whole blood, po, 10 mg/kg, Day 1, 10 mg/kg oral, Female
[6] = female, whole blood, po, 10 mg/kg, Day 7, 10 mg/kg oral, Female
[7] = female, whole blood, po, 30 mg/kg, Day 1, 30 mg/kg oral, Female
[8] = female, whole blood, po, 30 mg/kg, Day 7, 30 mg/kg oral, Female
[9] = female, whole blood, po, 100 mg/kg, Day 1, 100 mg/kg oral, Female
[10] = female, whole blood, po, 100 mg/kg, Day 7, 100 mg/kg oral, Female
[11] = male, whole blood, iv, 5 mg/kg, Day 1, 5 mg/kg I.V., Male
[12] = male, whole blood, po, 10 mg/kg, Day 1, 10 mg/kg oral, Male
[13] = male, whole blood, po, 10 mg/kg, Day 7, 10 mg/kg oral, Male
[14] = male, whole blood, po, 30 mg/kg, Day 1, 30 mg/kg oral, Male
[15] = male, whole blood, po, 30 mg/kg, Day 7, 30 mg/kg oral, Male
[16] = male, whole blood, po, 100 mg/kg, Day 1, 100 mg/kg oral, Male
[17] = male, whole blood, po, 100 mg/kg, Day 7, 100 mg/kg oral, Male
[18] = whole blood, iv, Day 1, 5 mg/kg I.V., Female
[19] = whole blood, iv, Day 1, 5 mg/kg I.V., Male

SMILES: CN1CCN(c2nc(NCCN3CCOCC3)c3nc(Cl)c(NCCN4CCOCC4)nc3n2)CC1 [JB6121, 6-chloro-2-(4-methylpiperazin-1-yl)-N^4,N^7-bis(2-morpholinoethyl)pteridine-4,7-diamine]
- Metabolic Stability, Human Liver Microsomes at 60 min. % remaining [1]: 75%
- Cell Viability, Hep-G2 cells, % inhibition at 100 μM (Hep-G2 cells): 8.5%
- 7-day accumulation ([2]; 7 day toxicokinetics versus 24 h PK whole blood exposures): approximately 2 fold
- F (0-x) ([2]; Day 1, 10 mg/kg oral, Female): 8.10%
- F (0-x) ([2]; Day 1, 10 mg/kg oral, Male): 13.3%
- F (0-x) ([2]; Day 1, 30 mg/kg oral, Female): 37.2%
- F (0-x) ([2]; Day 1, 30 mg/kg oral, Male): 28.0%
- F (0-x) ([2]; Day 1, 100 mg/kg oral, Female): 91.0%
- F (0-x) ([2]; Day 1, 100 mg/kg oral, Male): 78.5%
- increase in AUC0-24 h for a 10-fold increase in dose ([2]; Day 1, female): 113 fold
- increase in Cmax for a 10-fold increase in dose ([2]; Day 1, female): 43 fold
- increase in AUC0-24 h for a 10-fold increase in dose ([2]; Day 1, male): 59 fold
- increase in Cmax for a 10-fold increase in dose ([2]; Day 1, male): 32 fold
- increase in AUC0-24 h for a 10-fold increase in dose ([2]; Day 7, female): 38 fold
- increase in Cmax for a 10-fold increase in dose ([2]; Day 7, female): 20 fold
- increase in AUC0-24 h for a 10-fold increase in dose ([2]; Day 7, male): 48 fold
- increase in Cmax for a 10-fold increase in dose ([2]; Day 7, male): 24 fold
- average D7/D1 AUC0-24 h ratio [2, 3]: 2.79
- average D7/D1 Cmax ratio [2, 3]: 1.71
- AUC [2, 4]: 2210 ng·h/mL
- half-life [2, 4]: 10.8 h
- AUC [2, 5]: 357 ng·h/mL
- Cmax [2, 5]: 92 ng/mL
- Tmax [2, 5]: 3 h
- half-life [2, 5]: 5.43 h
- AUC [2, 6]: 2120 ng·h/mL
- Cmax [2, 6]: 260 ng/mL
- Tmax [2, 6]: 3 h
- half-life [2, 6]: 18.2 h
- AUC [2, 7]: 4920 ng·h/mL
- Cmax [2, 7]: 643 ng/mL
- Tmax [2, 7]: 3 h
- half-life [2, 7]: 8.8 h
- AUC [2, 8]: 8890 ng·h/mL
- Cmax [2, 8]: 639 ng/mL
- Tmax [2, 8]: 6 h
- half-life [2, 8]: 14.3 h
- AUC [2, 9]: 40300 ng·h/mL
- Cmax [2, 9]: 3980 ng/mL
- Tmax [2, 9]: 3 h
- half-life [2, 9]: 9.39 h
- AUC [2, 10]: 80200 ng·h/mL
- Cmax [2, 10]: 5310 ng/mL
- Tmax [2, 10]: 3 h
- half-life [2, 10]: 14.1 h
- AUC [2, 11]: 2790 ng·h/mL
- half-life [2, 11]: 10.2 h
- AUC [2, 12]: 743 ng·h/mL
- Cmax [2, 12]: 122 ng/mL
- Tmax [2, 12]: 3 h
- half-life [2, 12]: 14.1 h
- AUC [2, 13]: 1910 ng·h/mL
- Cmax [2, 13]: 181 ng/mL
- Tmax [2, 13]: 3 h
- half-life [2, 13]: 19.9 h
- AUC [2, 14]: 4700 ng·h/mL
- Cmax [2, 14]: 582 ng/mL
- Tmax [2, 14]: 3 h
- half-life [2, 14]: 9.39 h
- AUC [2, 15]: 11100 ng·h/mL
- Cmax [2, 15]: 805 ng/mL
- Tmax [2, 15]: 6 h
- half-life [2, 15]: 18.4 h
- AUC [2, 16]: 43800 ng·h/mL
- Cmax [2, 16]: 3950 ng/mL
- Tmax [2, 16]: 3 h
- half-life [2, 16]: 11.9 h
- AUC [2, 17]: 91200 ng·h/mL
- Cmax [2, 17]: 6280 ng/mL
- Tmax [2, 17]: 3 h
- half-life [2, 17]: 40.4 h
- slope of Cmax versus dose ([2]; pooled 7-day exposure data, 0 to 30 mg/kg): 28.24 ng/mL/mg/kg
- clearance [2, 18]: 31.5 mL/min/kg
- Vd [2, 18]: 23.1 L/kg
- clearance [2, 19]: 24.7 mL/min/kg
- Vd [2, 19]: 18.1 L/kg
- bioavailability ([2]; whole blood, po, Day 1, 10 mg/kg): 13.3%
- bioavailability ([2]; whole blood, po, Day 1, 30 mg/kg): 28%
- bioavailability ([2]; whole blood, po, Day 1, 100 mg/kg): 78.5%

From US20170275287A1, “NOVEL N2, N4, N7, 6-TETRASUBSTITUTED PTERIDINE-2,4,7-TRIAMINE AND 2, 4, 6, 7-TETRASUBSTITUTED PTERIDINE COMPOUNDS AND METHODS OF SYNTHESIS AND USE THEREOF” (Janus Biotherapeutics, Inc., priority 2014, published 2017)
